Laboratory results from ChEMBL document CHEMBL1156734, “Discovery of 1,3-disubstituted-1H-pyrrole derivatives as potent melanin-concentrating hormone receptor 1 (MCH-R1) antagonists” (Bioorg Med Chem Lett, 2008).

What was measured:
[1] = molecular target: T1, Melanin-concentrating hormone receptor 1 (Homo sapiens, UniProt Q99705); assay: Displacement of [125I]MCH from human MCHR1 expressed in HEK293 cells; format: cell-based
[2] = molecular target: T1, Melanin-concentrating hormone receptor 1; assay: Antagonist activity at human MCHR1 expressed in HEK293 cells assessed as [35S]GTPgammaS accumulation; format: functional, cell-based
Liver microsomes = assay: Metabolic stability in human liver microsomes; format: ADME, Microsome
[3] = Fraction unbound in human plasma; format: ADME, cell-free
Mus musculus = assay: Intrinsic clearance in C57BL mouse at 20 uM/kg, iv; format: ADME, organism-based; conditions: in vivo

T1 sequence (Q99705 whole entry): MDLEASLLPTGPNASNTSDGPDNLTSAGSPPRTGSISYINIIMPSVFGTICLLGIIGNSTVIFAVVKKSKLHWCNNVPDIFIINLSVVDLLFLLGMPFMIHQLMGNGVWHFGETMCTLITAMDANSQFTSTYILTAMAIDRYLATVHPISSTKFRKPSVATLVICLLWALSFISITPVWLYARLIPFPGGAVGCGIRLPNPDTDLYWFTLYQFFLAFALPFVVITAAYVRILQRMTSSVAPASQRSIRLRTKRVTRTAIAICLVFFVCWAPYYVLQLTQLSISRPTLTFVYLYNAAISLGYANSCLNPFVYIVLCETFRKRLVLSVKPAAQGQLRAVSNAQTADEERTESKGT

O=C(COc1cccc(Cl)c1)NC1CN(Cc2ccn(-c3ccc(C(F)(F)F)cc3)c2)C1
IC50 [1]: 42 nM
IC50 [2]: 73 nM

FC(F)(F)c1ccc(-n2ccc(CN3CCC(NCCOc4cccc(Cl)c4)CC3)c2)cc1
IC50 [1]: 636 nM

CC(c1ccn(-c2ccc(C(F)(F)F)cc2)c1)N1CCC(NC(=O)COc2cccc(Cl)c2)CC1 (stereo not given)
IC50 [1]: 43 nM
IC50 [2]: 117 nM

Fc1ccc(-c2cc(C3CCN(Cc4ccn(-c5ccc(C(F)(F)F)cc5)c4)CC3)on2)cc1
IC50 [1]: 66 nM

N#Cc1ccc(-n2ccc(CN3CCC(NC(=O)COc4cccc(Cl)c4)CC3)c2)cc1
IC50 [1]: 52 nM
IC50 [2]: 145 nM

O=C(COc1cccc(Cl)c1)NC1CCN(Cc2cc3c(cc2Cl)OCO3)CC1
IC50 [1]: 82 nM
IC50 [2]: 505 nM

O=C(COc1cccc(Cl)c1)NC1CCN(Cc2ccn(-c3ccc(C(F)(F)F)cc3)c2)CC1
clearance (Liver microsomes): 38 µL/min/mg
fraction unbound [3]: 0.012
CL (Mus musculus): 41 mL/min/kg

Fc1ccc(-c2cc(C3CCN(Cc4ccn(-c5ccc(C(F)(F)F)cc5)c4)CC3)n[nH]2)cc1
IC50 [1]: 37 nM
IC50 [2]: 58 nM

O=C(COc1cccc(Cl)c1)NC1CCN(Cc2ccc3c(c2)OCCO3)CC1
IC50 [1]: 903 nM

Fc1ccc(-c2ncc(C3CCN(Cc4ccn(-c5ccc(C(F)(F)F)cc5)c4)CC3)[nH]2)cc1
IC50 [1]: 113 nM

O=C(COc1cccc(Cl)c1)NCC1CCCN(Cc2ccn(-c3ccc(C(F)(F)F)cn3)c2)C1 (stereo not given)
IC50 [1]: 303 nM

Fc1ccc(-c2cc(C3CCN(Cc4ccn(-c5ccc(C(F)(F)F)cc5)c4)CC3)no2)cc1
IC50 [1]: 25 nM
IC50 [2]: 67 nM

O=C(COc1cccc(Cl)c1)NC1CCN(Cc2ccn(-c3ccon3)c2)CC1
IC50 [1]: 1500 nM

O=C(COc1cccc(Cl)c1)NC1CCN(Cc2ccc3[nH]ccc3c2)CC1
IC50 [1]: 2340 nM

O=C(COc1cccc(Cl)c1)NC1CCCN(Cc2ccn(-c3ccc(C(F)(F)F)cn3)c2)C1 (stereo not given)
IC50 [1]: 3050 nM

O=C(COc1cccc(Cl)c1)NC1CCN(Cc2cccc(-n3cccc3)c2)CC1
IC50 [1]: 297 nM

O=C(COc1ccc(F)c(F)c1)NCC1CN(Cc2ccn(-c3ccc(C(F)(F)F)cc3)c2)CCO1 (stereo not given)
IC50 [1]: 269 nM

O=C(COc1cccc(Cl)c1)NC1CCN(Cc2ccc(-c3ccc(C(F)(F)F)cn3)o2)CC1
IC50 [1]: 927 nM

CN(C(=O)COc1cccc(Cl)c1)C1CCN(Cc2ccn(-c3ccc(C(F)(F)F)cc3)c2)CC1
IC50 [1]: 109 nM

Cc1cc(CN2CCC(NC(=O)COc3cccc(Cl)c3)CC2)c(C)n1-c1ccccc1
IC50 [1]: 9650 nM

O=C(COc1cccc(Cl)c1)NC1CCN(Cc2cn(-c3ccc(C(F)(F)F)cc3)cn2)CC1
IC50 [1]: 2140 nM

O=C(COc1ccc(F)c(F)c1)NC1CCN(Cc2ccn(-c3ccc(C(F)(F)F)cc3)c2)C1 (stereo not given)
IC50 [1]: 29 nM
IC50 [2]: 48 nM

O=C(COc1cccc(Cl)c1)NC1CCN(Cc2ccn(-c3ccccc3)c2)CC1
IC50 [1]: 710 nM

O=C(COc1cccc(Cl)c1)NC1CCN(Cc2ccn(-c3ccc(OC(F)(F)F)cc3)c2)CC1
clearance (Liver microsomes): 21 µL/min/mg
IC50 [1]: 31 nM
fraction unbound [3]: 0.032
CL (Mus musculus): 34 mL/min/kg
IC50 [2]: 15 nM

O=C(COc1cccc(Cl)c1)NC1CCN(Cc2ccn(-c3ccc(C(F)(F)F)cn3)c2)CC1
IC50 [1]: 48 nM
IC50 [2]: 92 nM

Fc1ccc(-c2c[nH]c(C3CCN(Cc4ccn(-c5ccc(C(F)(F)F)cc5)c4)CC3)n2)cc1
IC50 [1]: 20 nM
IC50 [2]: 122 nM

O=C(COc1cccc(Cl)c1)NC1CCN(Cc2ccc(-c3ccccn3)cc2)CC1
IC50 [1]: 120 nM

Cc1c(-c2ccccc2)[nH]c(=O)n1C1CCN(Cc2ccn(-c3ccc(C(F)(F)F)cc3)c2)CC1
IC50 [1]: 26 nM
IC50 [2]: 71 nM

O=C(COc1cccc(Cl)c1)NC1CCN(Cc2ccn(C3CCCC3)c2)CC1
IC50 [1]: > 33000 nM

O=C(COc1cccc(Cl)c1)NCC1CCN(Cc2ccn(-c3ccc(C(F)(F)F)cn3)c2)CC1
IC50 [1]: 313 nM

O=C(NC1CCN(Cc2ccc(Cl)c(Cl)c2)CC1)c1csc([N+](=O)[O-])c1
IC50 [1]: 92 nM
IC50 [2]: 804 nM

O=C(COc1ccc(F)c(F)c1)N[C@H]1CC[C@@H](Nc2ccn(-c3ccc(C(F)(F)F)cc3)c2)CC1
IC50 [1]: 104 nM

O=C(COc1cccc(Cl)c1)N1CCC(Nc2ccn(-c3ccc(C(F)(F)F)cn3)c2)CC1
IC50 [1]: 1250 nM

O=C(COc1ccc(F)c(F)c1)N[C@H]1CC[C@H](Nc2ccn(-c3ccc(C(F)(F)F)cc3)c2)C1
IC50 [1]: 2260 nM

COc1ccc(-n2ccc(CN3CCC(NC(=O)COc4cccc(Cl)c4)CC3)c2)cc1
IC50 [1]: 100 nM
IC50 [2]: 90 nM

O=C(COc1cccc(Cl)c1)NC1CCN(Cc2ccc(-c3ccc(OC(F)(F)F)cc3)o2)CC1
IC50 [1]: 78 nM
IC50 [2]: 103 nM

Cc1cccc(OCC(=O)NCC2CN(Cc3ccn(-c4ccc(C(C)(C)C)cn4)c3)C2)c1
IC50 [1]: 169 nM

O=C(COc1cccc(Cl)c1)NC1CCN(Cc2csc(-c3ccc(Cl)cc3)n2)CC1
IC50 [1]: 347 nM

O=C(COc1cccc(Cl)c1)N[C@H]1[C@@H]2CN(Cc3ccn(-c4ccc(C(F)(F)F)cc4)c3)C[C@@H]21
IC50 [1]: 111 nM

O=C(COc1cccc(Cl)c1)NC1CCN(Cc2ccc3ccccc3c2)CC1
IC50 [1]: 41 nM
IC50 [2]: 104 nM
